Experimental data published in PubChem BioAssay AID179 (DTP/NCI, 2004).
Active and inactive are the calls of the source.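 Rule for the calls: active = compounds giving half or more protection of infected cells from virus-caused growth loss, again on retest; inactive = the rest.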

Tested on: CEM cells HIV-1 protection, formazan growth assay
Test: NCI AIDS Antiviral Assay
Conditions: for IC50: measured here: growth of uninfected CEM cells
Summary of the method: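 Human CEM cells, uninfected and HIV-1-infected, received five drug concentrations, and growth was read by soluble formazan assay. Compounds giving at least 50% protection were retested; reproducible 100% protection defined confirmed active.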

| Compound | EC50 | IC50 | outcome |
| --- | --- | --- | --- |
| CC(=O)N1c2ccccc2Sc2c1ccc1ccccc21 | > 200 µM | 45.7 µM | – |
| CC(=O)[O-].[Ni].c1ccc(/C(=N\Nc2ccccn2)c2ccccn2)cc1 | – | – | inactive |
| O=C1CCC[C@H]2O[C@@H](COCc3ccccc3)C[C@@H]12 | > 200 µM | 151 µM | – |
| COC1/C=C/OC2(C)Oc3c(C)c(O)c4c(O)c(c(/C=N/N5C(C)CN(Cc6ccc(NC(C)=O)cc6)CC5C)c(O)c4c3C2=O)NC(=O)C(C)=C/C=C/C(C)C(O)C(C)C(O)C(C)C(OC(C)=O)C1C (stereo unspecified) | > 200 µM | 9.12 µM | – |
| COC1(c2ccccc2)OC(=O)c2ccccc21 (stereo unspecified) | > 200 µM | 83.2 µM | – |
| Cc1nc2ccccc2c(=O)n1NC(=O)c1ccccn1 | > 200 µM | > 200 µM | – |
| CCCCCCC[CH2][Sn]1([CH2]CCCCCCC)[O]C(=O)c2cccnc2[O]1 | > 7.41 µM | > 7.41 µM | – |
| Cc1ccc2c(c1)NC(=S)N=S2(C)=O (stereo unspecified) | > 158 µM | 93.3 µM | – |
| CC1(C)OC(=O)c2cc(C(=CCCO)c3cc(Cl)c4c(c3)C(=O)OC(C)(C)O4)cc(Cl)c2O1 | > 200 µM | 28.8 µM | – |
| Oc1[nH]c2ccccc2c1N=NC(=S)N1CCCCCC1 | > 200 µM | 1.32 µM | – |
| C/C(Cl)=N\OC(=O)Nc1ccccc1C(F)(F)F | > 200 µM | 33.1 µM | – |
| CC1=C(C(=O)Nc2ccccc2)C(c2ccc([N+](=O)[O-])cc2)C(C(=O)Nc2ccccc2)=C(C)N1 | > 15.5 µM | > 15.5 µM | – |
| Cc1cccc(C=C2C(=O)NC(=O)NC2=O)c1 | > 407 µM | > 407 µM | – |
| Cn1ccn2c3nc4ccccc4nc3c(=O)c(C#N)c12 | – | – | inactive |
| CCCCOC(=O)C(=O)C(CC(C(=O)Cc1ccccc1)c1ccccc1)C(=O)C=C(C)C (stereo unspecified) | > 112 µM | > 112 µM | – |
| CC1(C)OC1COc1c2occc2cc2ccc(=O)oc12 (stereo unspecified) | > 155 µM | 74.1 µM | – |
| O=C(Nc1ccccc1[N+](=O)[O-])C(=O)C(C(=O)c1ccccc1-c1ccccc1)C1OC(=O)c2ccccc21 (stereo unspecified) | > 50.1 µM | 25.7 µM | – |
| CCSc1n/c(=C\c2ccco2)c2nnnn12 | > 50.1 µM | > 50.1 µM | – |
| Fc1ccc(OCc2nc3cc(C(F)(F)F)ccc3nc2-c2ccccc2)cc1 | > 200 µM | 138 µM | – |
| C/C(=N/c1[nH]c(=O)cc2c1C(=O)CC2)N(C)C | > 200 µM | > 200 µM | – |
| Cc1noc(NC2=CC(=O)C(=O)c3ccccc32)c1C | > 200 µM | 3.98 µM | – |

| Compound | EC50 | IC50 | outcome |
| --- | --- | --- | --- |
| CC(C)(C)[Si](C)(C)OC1C(/C=N\O)OC(n2ccc(=O)[nH]c2=O)C1O[Si](C)(C)C(C)(C)C (stereo unspecified) | > 200 µM | 3.55 µM | – |
| O=[N+]([O-])c1ccc(C=C2C=CN(CCO)C=C2)cc1 | > 200 µM | > 200 µM | – |
| BrC1CCCCCC(Br)C12OCCO2 (stereo unspecified) | > 57.5 µM | > 57.5 µM | – |
| CNC(=S)N/N=C(\C)c1ccc(OC)cc1O | > 200 µM | 13.8 µM | – |
| N#Cc1c(=O)c2cccnc2n2c1[nH]c1ccccc12 | > 200 µM | > 200 µM | – |
| Cc1ccc(C)n1N1CC(C)N(N=O)CC1C (stereo unspecified) | > 200 µM | > 200 µM | – |
| CCCCC1=C(C(=O)N2CCOCC2)C2(OCCO2)C1=O | > 200 µM | 53.7 µM | – |
| CCOC(=O)CN=C1Nc2ccccc2C(=O)N2CSCC12 (stereo unspecified) | > 200 µM | 158 µM | – |
| CCOC(=O)c1ccccc1NC(=O)CN(CC)CC | > 200 µM | > 200 µM | – |
| COC(=O)CC(NC(=O)OCc1ccccc1)C(C(=O)OCc1ccccc1)C(C)(OC)OC (stereo unspecified) | > 50.1 µM | 20.4 µM | – |
| Nc1nc(Cl)c(N)c(NCC2(CO)CC(CCCc3ccccc3)C2)n1 (stereo unspecified) | > 0.2 µM | 0.186 µM | – |
| O=c1[nH]nc(Cc2ccccc2)n1/N=C/c1ccc([N+](=O)[O-])cc1 | > 200 µM | > 200 µM | – |
| C/C(=N/NC(=O)c1ccncc1)C(F)(F)F | – | – | inactive |
| CC(C)Oc1cc2c(c3oc(=O)cc(-c4ccccc4)c13)C(=O)[C@H](C)[C@@H](C)O2 | > 200 µM | 51.3 µM | – |
| N#CC1(c2nc3ccccc3o2)C(=O)C(=O)N(C2C3CC4CC(C3)CC2C4)C(=O)C1=O (stereo unspecified) | > 107 µM | > 107 µM | – |
| Cc1ccnc2c1C(=O)C(=O)C=C2N1CCOCC1 | – | – | inactive |
| CC(C)CCC[C@@H](C)C1CCC2[C@@H]3CCC4C[C@@H](CCCC=C(c5cc(Cl)c(O)c(C(=O)O)c5)c5cc(Cl)c(O)c(C(=O)O)c5)CC[C@]4(C)C3CC[C@@]21C (stereo partly specified) | 63.1 µM | 166 µM | – |
| O=C1/C(=C/c2ccccc2)NC(=S)N1CN1CCOCC1 | > 200 µM | 72.4 µM | – |
| COCCN1C(=O)C(NC(C)=O)[C@H]1COC(C)(C)C (stereo partly specified) | > 661 µM | > 661 µM | – |
| CC(=O)OC[C@]12[C@H](OC(C)=O)[C@H](OC(C)=O)[C@@H]3C(O)[C@@]14OC3(C)COC(=O)c1cccnc1CCC(C)C(=O)OC([C@H](OC(C)=O)[C@@H]2OC(=O)c1ccccc1)[C@]4(C)O (stereo partly specified) | > 30.2 µM | > 30.2 µM | – |
| CN(C)CCCNC(=O)c1cc(NC(=O)c2cc(NC(=O)c3cc(N4C(=O)c5ccccc5C4=O)cn3C)cn2C)cn1C | > 81.3 µM | 57.5 µM | – |

| Compound | EC50 | IC50 | outcome |
| --- | --- | --- | --- |
| OC(c1cnc2sccn12)C(F)(F)Sc1ccccc1 (stereo unspecified) | > 200 µM | 10.2 µM | – |
| O=C1c2ccccc2C(=O)N1CCC[P+](c1ccccc1)(c1ccccc1)c1ccccc1 | > 200 µM | 95.5 µM | – |
| Clc1ccc(C2C3COc4ccccc4C3=NN2c2ccccc2)cc1 (stereo unspecified) | > 151 µM | 1.95 µM | – |
| Cc1cc(Cl)ccc1NC(=O)C(=O)Cc1occc(=O)c1O | > 295 µM | > 295 µM | – |
| CO/C=C/C=C(\C#N)C(=O)OC | 174 µM | > 200 µM | – |
| CC1(C)COC(c2ccc(C(F)(F)F)cc2C(O)c2ccc3ccccc3c2)=N1 (stereo unspecified) | – | – | inactive |
| CCOC(=O)c1cc(-c2ccc([N+](=O)[O-])cc2)c([N+](=O)[O-])[nH]1 | > 200 µM | 7.94 µM | – |
| CN(C)C1C(=O)C(C(=O)NCNC(C=O)C(O)C(O)C(O)CO)=C(O)C2(O)C(=O)C3=C(O)c4c(O)cccc4C(C)(O)C3CC12 (stereo unspecified) | > 178 µM | 110 µM | – |
| CS1(C)=NC(=O)C2=C(N=1)c1ccccc1S2(=O)=O | > 47.9 µM | > 47.9 µM | – |
| CC(C)c1ccc(/C=C(\NC(=O)c2ccccc2)c2nc3ccccc3[nH]2)cc1 | > 49 µM | > 49 µM | – |
| c1ccc2sc(NCCSSCCNc3nc4ccccc4s3)nc2c1 | > 200 µM | 23.4 µM | – |
| COc1cc2c(c([N+](=O)[O-])c1)NC(=O)CS2 | > 200 µM | 79.4 µM | – |
| CCOC(=O)/C(=C/c1ccc(C)cc1)P(=O)(OCC)OCC | 562 µM | 631 µM | – |
| COC(=O)C1=C(C(=O)OC)C2C(C)=CC(C)=CN2C(C#N)=C(SC)S1 (stereo unspecified) | > 13.8 µM | > 13.8 µM | – |
| ClC[Si]12OCCN(CCO1)CCO2 | – | – | inactive |
| Cc1cccc(-n2cc(C#N)c3c(C)cc(C)nc32)c1 | > 100 µM | > 100 µM | – |
| C1CCC(CC2CCC(NC3=NCCO3)CC2)CC1 (stereo unspecified) | > 200 µM | 31.6 µM | – |
| O=C(Nc1ccc2[nH]c(=S)sc2c1)Nc1ccccc1F | > 200 µM | 33.1 µM | – |
| Cc1cc(O)c2c(c1)C[C@@H](O)C1=C2C(=O)c2c(O)ccc(OC3CC(O)C(OC4CC(OC5CCC(OC6CC(O)C(OC7CC(OC8CCC(O)C(C)O8)C(O)C(C)O7)C(C)O6)C(C)O5)C(O)C(C)O4)C(C)O3)c2C1=O (stereo partly specified) | > 43.7 µM | 0.2 µM | – |
